The values that follow come from paper PMC4859512, “Polyamino-Isoprenic Derivatives Block Intrinsic Resistance of P. aeruginosa to Doxycycline and Chloramphenicol In Vitro” (PLoS ONE, 2016).

Holding throughout (assay type): cell-based, Pseudomonas aeruginosa
For experiment [1], the system named is P. aeruginosa PA01 ERY^R (Mex CD overproducer). Briefly: microbe, parasite or virus in culture.
Experiment [2] concerns P. aeruginosa strains over-expressing efflux pumps (PA01, PT629, PA01-ERY^R, PA0-7H, CMZ091, FB1). Put plainly: Spotting of logarithmic dilutions on MH agar with antibiotic and compound 3. The protocol:
In a second experiment, 5 μL of logarithmic dilutions of an overnight culture of the 6 strains described in Table 1 were spotted on the MH agar plates prepared as above. An additional assay was also performed with these 6 strains using chloramphenicol as antibiotic instead of doxycycline.
Fig 4 Compound 3 activity against P. aeruginosa strains over-expressing efflux pumps. The ability of bacteria to grow under various conditions was assessed in solid media containing, in a: 2 mg/L doxycycline (left) or a combination of 2 mg/L doxycycline and 10 μM compound 3 (right) and in b: 4 mg/L chloramphenicol (left) or a combination of 4 mg/L chloramphenicol and 10 μM compound 3 (right). 5 μL of logarithmic dilutions of an overnight culture of each strain were spotted on the plates. From top to bottom, PA01, PT629, PA01-ERY^R, PA0-7H, CMZ091 and FB1.

Experiment [3] has as its system P. aeruginosa PA0-7H (Mex EF overproducer). Put plainly: Antibiotic susceptibility testing (broth micro-dilution MIC), strain PA0-7H.
Another experiment relates to P. aeruginosa PA01 (wt). Briefly: Antibiotic susceptibility testing (broth micro-dilution MIC), strain PA01.
Where [4] appears, read: Pseudomonas aeruginosa, read-out: Minimal Inhibitory Concentration.

Each structure is given as a SMILES string. Several values for one entry are separate records, joined by “and”; a condition that tells them apart may be missing. Equal entries are not always repeated.

As to `CC(C)=CCCC(C)=CCCC(C)=CCNCCCNCCCCNCCCN` [Compound 3], the “MIC of Amikacin in the presence of the compound” value in experiment [1] (PA01 ERY R, compound 10µM) amounted to 32 mg/L; in experiment [3] (PA0-7H, compound 10µM), 64 mg/L; with P. aeruginosa PA01 (wt) (PA01, compound 10µM), 64 mg/L. Moreover, the “MIC of Ceftazidime in the presence of the compound” value in experiment [1] (PA01 ERY R, compound 10µM) came out at 2 mg/L; in experiment [3] (PA0-7H, compound 10µM) it was 1 mg/L; in the experiment with P. aeruginosa PA01 (wt) (PA01, compound 10µM), 2 mg/L. Moreover, the “MIC of Ciprofloxacin in the presence of the compound” value in experiment [1] (PA01 ERY R, compound 10µM) worked out at 0.125 mg/L; in experiment [3] (PA0-7H, compound 10µM), 1 mg/L; with P. aeruginosa PA01 (wt) (PA01, compound 10µM) it was 0.125 mg/L. The “MIC of Ticarcillin in the presence of the compound” value in experiment [1] (PA01 ERY R, compound 10µM) was 16 mg/L; in experiment [3] (PA0-7H, compound 10µM), 4 mg/L; with P. aeruginosa PA01 (wt) (PA01, compound 10µM), 16 mg/L. The MIC in experiment [1] (setting [4]) is 25 µg/mL and 62.5 µM; in experiment [3] (setting [4]), 25 µg/mL and 62.5 µM; in the experiment with P. aeruginosa PA01 (wt) (setting [4]), 25 µg/mL and 62.5 µM. Also, the “dilution of overnight culture at which growth was observed” value in experiment [2] (2 μg/mL doxycycline + 10 μM compound 3, PA01 or strains overproducing MexCD or MexEF) is listed as 10^−2; in experiment [2] (2 μg/mL doxycycline + 10 μM compound 3, cells overproducing MexAB or MexXY), 10^−4. Also, the “dilution above which no growth was observed” value in experiment [2] (2 μg/mL doxycycline + 10 μM compound 3, all cases) was 10^−5. The growth on agar result in experiment [2] (2 μg/mL doxycycline + 10 μM compound 3, ΔmexB strain) is on record as “did not grow at any of the dilutions”. Further, in experiment [2] (4 mg/L chloramphenicol + 10 μM compound 3, PT629 and PA0-7H), the “effect on growth with chloramphenicol” value is recorded as “slight effect”. In experiment [3] (PA0-7H (overproduces MexEF), compound 10 µM), the “decrease of MIC of ciprofloxacin” value is on record as 4 times.
